Experimental data from the NIST ThermoML archive (doi:10.1016/j.fluid.2006.01.008).

Assays:
[1] = xn = mol fraction of the nth substance listed; conditions: 298.15 K, 101 kPa, Liquid; for viscosity: Capillary tube (Ostwald / Ubbelohde) method; for speed of sound: Sing-around technique in a fixed-path interferometer; for mass density: Vibrating tube method
[2] = refractive index (Na D-line) (dimensionless); xn = mol fraction of the nth substance listed; conditions: 298.15 K, 101 kPa, Liquid, Standard Abbe refractometry
[3] = 298.15 K, 101.33 kPa, Liquid; for viscosity: Capillary tube (Ostwald / Ubbelohde) method; for speed of sound: Sing-around technique in a fixed-path interferometer; for mass density: Vibrating tube method
[4] = refractive index (Na D-line) (dimensionless); conditions: 298.15 K; 101.33 kPa; Liquid; Standard Abbe refractometry

CCCCCCCC[n+]1ccn(C)c1.F[B-](F)(F)F [1-methyl-3-octylimidazolium tetrafluoroborate] + CC(C)O
Conditions	mass density, [1] [kg/m3]	refractive index, [2]	speed of sound, [1] [m/s]	viscosity, [1] [mPa·s]
x1 = 0.0459	826.83	1.38385	1170	2.956
x1 = 0.0892	862.39	1.39059	1198	3.955
x1 = 0.182	921.09	1.40147	1254	7.053
x1 = 0.2506	953.75	1.40743	1291	10.15
x1 = 0.2965	972	1.41077	1312	12.88
x1 = 0.3677	996.08	1.41503	1343	18.27
x1 = 0.4214	1011.52	1.41781	1362	23.79
x1 = 0.4798	1026.24	1.42048	1381	31.66
x1 = 0.5028	1031.53	1.42134	1387	35.48
x1 = 0.6166	1054.39	1.42547	1416	61.95
x1 = 0.7089	1069.7	1.42817	1437	96.3
x1 = 0.7558	1076.59	1.42938	1446	120.5
x1 = 0.8697	1091.33	1.43182	1467	202.6

CCCCCCCC[n+]1ccn(C)c1.F[B-](F)(F)F [1-methyl-3-octylimidazolium tetrafluoroborate]
Conditions	mass density [kg/m3]	refractive index	speed of sound [m/s]	viscosity [mPa·s]
[3]	1105.3	–	1491	359.9
[4]	–	1.43422	–	–

CCCO [propan-1-ol]
Conditions	mass density [kg/m3]	refractive index	speed of sound [m/s]	viscosity [mPa·s]
[3]	799.47	–	1207	1.928
[4]	–	1.38306	–	–

CC(C)O [propan-2-ol]
Conditions	mass density [kg/m3]	refractive index	speed of sound [m/s]	viscosity [mPa·s]
[3]	780.95	–	1140	2.054
[4]	–	1.3752	–	–

CCCCCCCC[n+]1ccn(C)c1.F[B-](F)(F)F [1-methyl-3-octylimidazolium tetrafluoroborate] + CCO
Conditions	mass density, [1] [kg/m3]	refractive index, [2]	speed of sound, [1] [m/s]	viscosity, [1] [mPa·s]
x1 = 0.0517	849.43	1.37489	1195	1.74
x1 = 0.0818	878.24	1.38179	1218	2.25
x1 = 0.1822	946.85	1.39805	1287	4.722
x1 = 0.2779	988.78	1.40778	1336	8.542
x1 = 0.378	1019.53	1.41488	1376	14.99
x1 = 0.46	1038.64	1.41926	1398	23.42
x1 = 0.5474	1054.97	1.42304	1419	37.38
x1 = 0.5537	1056.01	1.42326	1420	38.62
x1 = 0.5636	1057.63	1.42362	1422	40.81
x1 = 0.6203	1066.22	1.4256	1434	54.88
x1 = 0.662	1071.9	1.42683	1441	67.91
x1 = 0.7749	1085.35	1.42973	1459	120.4
x1 = 0.9286	1099.7	1.43293	1481	251.9
